Results as given in the NIST ThermoML archive (doi:10.1016/j.fluid.2006.03.014).

Settings: Liquid

CC(C)(N)CO [2-amino-2-methylpropan-1-ol]
Settings | vapor or sublimation pressure [kPa]
373.25 K | 8
381.35 K | 12
388.05 K | 16
393.05 K | 20
397.25 K | 24
401.05 K | 28
404.45 K | 32
407.75 K | 36
410.35 K | 40
412.95 K | 44
415.15 K | 48
416.65 K | 50.7
418.15 K | 53.3
419.95 K | 57.3
421.85 K | 61.3
423.65 K | 65.3
424.45 K | 66.7
425.55 K | 69.3
427.15 K | 73.3
429.65 K | 80
429.75 K | 80
431.85 K | 85.3
433.65 K | 90.7
435.35 K | 96
436.85 K | 101.3
